Assay results taken from ChEMBL document CHEMBL1828574, “Synthesis and structural studies of pentacycloundecane-based HIV-1 PR inhibitors: a hybrid 2D NMR and docking/QM/MM/MD approach” (Eur J Med Chem, 2011).
Where a SMILES comes first, the peptide text is derived from it. The star is where a group is joined. X1 = Oc1cccc(N*)c1

Columns and labels:
[1] = Ratio of cytotoxicity for Lopinavir to compound for human MT4 cells after 5 days by XTT assay; format: cell-based
[2] = Solubility of the compound in aqueous buffer at pH 5; format: physicochemical
[3] = molecular target: Human immunodeficiency virus type 1 protease (Human immunodeficiency virus 1, UniProt Q72874, Q7K); assay: Inhibition of HIV1 subtype C protease Q7K mutant expressed in Escherichia coli BL21 (DE3) pLysS using Lys-Ala-Arg-Val-Nle-p-nitro-Phe-Glu-Ala-Nle-NH2 as substrate by spectrophotometry
MT4 = assay: Cytotoxicity against human MT4 cells after 5 days by XTT assay; format: cell-based; details: MT4, 120 h

Compound: CC[C@H](C)[C@H](NC(=O)[C@@H](N)CO)C(=O)N[C@@H](C)C(=O)NC12NC(=O)C3(O)C4C5CC(C6C5C3C61)C42 (mixture of isomers; form 1)
- selectivity ratio at 120 h [1]: 6000
- solubility [2]: soluble
- IC50 [3]: 0.5 µM
- IC50 (MT4): > 300 µM

Compound: CC[C@H](C)[C@H](N)C(=O)N[C@@H](C)C(=O)N[C@@H](CCC(=O)O)C(=O)NC12NC(=O)C3(O)C4C5CC(C6C5C3C61)C42 (mixture of isomers)
- selectivity ratio at 120 h [1]: 6000
- solubility [2]: soluble
- IC50 [3]: 0.5 µM
- IC50 (MT4): 216 µM

Compound: CC[C@H](C)[C@H](NC(=O)[C@@H](N)CO)C(=O)N[C@@H](C)C(=O)NC12NC(=O)C3(O)C4C5CC(C6C5C3C61)C42 (mixture of isomers; form 2)
- IC50 [3]: 10 µM

Compound: CC[C@H](C)[C@H](NC(=O)[C@@H](N)CO)C(=O)N[C@@H](C)C(=O)N[C@@H](CCC(N)=O)C(=O)NC12NC(=O)C3(O)C4C5CC(C6C5C3C61)C42 (mixture of isomers)
- selectivity ratio at 120 h [1]: 6000
- solubility [2]: soluble
- IC50 [3]: 5 µM

Compound: CC[C@H](C)[C@H](NC(=O)[C@@H](N)CO)C(=O)N[C@@H](C)C(=O)N[C@@H](CCC(=O)O)C(=O)NC12NC(=O)C3(OC(C)=O)C4C5CC(C6C5C3C61)C42 (mixture of isomers)
- selectivity ratio at 120 h [1]: 6000
- solubility [2]: soluble
- IC50 [3]: > 10 µM

Compound: COC(=O)N[C@H](C(=O)N[C@@H](Cc1ccccc1)[C@@H](O)CN(Cc1ccc(-c2ccccn2)cc1)NC(=O)[C@@H](NC(=O)OC)C(C)(C)C)C(C)(C)C [ATAZANAVIR]
- IC50 [3]: 0.004 µM

Compound: Cc1cccc(C)c1OCC(=O)N[C@@H](Cc1ccccc1)[C@@H](O)C[C@H](Cc1ccccc1)NC(=O)[C@H](C(C)C)N1CCCNC1=O [LOPINAVIR]
- IC50 (MT4): 0.035 µM

Compound: CC[C@H](C)[C@H](NC(=O)[C@@H](N)CO)C(=O)N[C@H](C(=O)N[C@@H](CCC(=O)O)C(=O)NC12NC(=O)C3(O)C4C5CC(C6C5C3C61)C42)C(C)C (mixture of isomers)
- selectivity ratio at 120 h [1]: 6000
- solubility [2]: soluble
- IC50 [3]: 2 µM

Compound: CC[C@H](C)[C@H](NC(=O)[C@@H](N)CO)C(=O)N[C@@H](C)C(=O)N[C@@H](CCC(=O)O)C(=O)NC12NC(=O)C3(O)C4C5CC(C6C5C3C61)C42 (mixture of isomers)
- selectivity ratio at 120 h [1]: 6000
- solubility [2]: soluble
- IC50 [3]: 0.078 µM
- IC50 (MT4): 218 µM

Compound: CC[C@H](C)[C@H](NC(=O)[C@@H](N)CO)C(=O)N[C@@H](C)C(=O)N[C@@H](CCC(=O)O)C(=O)Nc1cccc(O)c1 (H-SIAE-X1)
- IC50 [3]: 10 µM
